These results are taken from patent publication US20110039846A1, “IMINOPYRIDINE DERIVATIVES AND USE THEREOF” (TAKEDA PHARMACEUTICAL COMPANY LIMITED, priority 2008, published 2011).

What is called inhibition is the share of the control response that was lost under treatment. High values mean strong suppression, low ones little suppression.

The structures appear in SMILES notation. Counter-ions that a name gives are not always drawn.

The target in this test is T1, human α1D adrenaline receptor (Homo sapiens, UniProt P25100).
T1 construct: expressed in transfected cells
T1 sequence (P25100 1-572): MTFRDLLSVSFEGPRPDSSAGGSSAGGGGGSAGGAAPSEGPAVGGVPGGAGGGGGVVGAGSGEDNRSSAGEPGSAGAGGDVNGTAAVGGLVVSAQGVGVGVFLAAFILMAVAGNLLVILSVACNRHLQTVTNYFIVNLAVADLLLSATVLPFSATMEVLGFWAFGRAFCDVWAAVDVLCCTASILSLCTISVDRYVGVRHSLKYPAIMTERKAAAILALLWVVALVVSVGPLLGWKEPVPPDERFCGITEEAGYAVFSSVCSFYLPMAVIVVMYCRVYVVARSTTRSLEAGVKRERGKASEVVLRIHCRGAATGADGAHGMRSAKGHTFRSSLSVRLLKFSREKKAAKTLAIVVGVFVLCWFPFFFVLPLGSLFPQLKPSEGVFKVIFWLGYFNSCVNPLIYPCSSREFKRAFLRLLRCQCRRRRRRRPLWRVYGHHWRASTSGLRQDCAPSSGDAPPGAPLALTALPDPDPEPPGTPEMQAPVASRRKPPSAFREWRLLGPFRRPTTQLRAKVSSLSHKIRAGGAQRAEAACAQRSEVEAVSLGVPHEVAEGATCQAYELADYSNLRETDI
Description: Measurement of α1D adrenaline receptor binding inhibitory activity ([3H] prazosin binding to membrane fraction of CHO-K1 cells expressing the receptor). Particulars: α1D adrenaline receptor binding inhibitory rate at 1 μM compound; [3H] prazosin 2.5 nM; CHO-K1 membrane fraction 20 μg/well; room temperature 1 hr. On the procedure: Measurement of α1D Adrenaline Receptor Binding Inhibitory Activity
Genetic manipulation methods described below are based on the methods described in Maniatis et al., Molecular Cloning, Cold Spring Harbor Laboratory, 1989, the protocol appended to a reagent and the like.
α1D Adrenaline receptor gene was cloned from human liver cDNA by the PCR method. PCR reaction was performed by Gene Amp PCR System 9700 (Applied Biosystems) with 50 pmol each of the primer set 5′-[…]-3′ [SEQ ID NO: 1] and 5′-[…]-3′ [SEQ ID NO: 2] prepared in reference to the base sequence of the α1D adrenaline receptor gene reported by DEBRA A. et al. (J. Pharmacol. Exp. Ter., 272, 134-142 (1995)), 200 ng of human brain hippocampus cDNA library (Takara Shuzo Co., Ltd.) as a template and TaKaRa LA-Taq DNA Polymerase (Takara Shuzo Co., Ltd.) (reaction conditions: 45 cycles of 94° C. for 15 sec, 68° C. for 3.5 min).
The PCR fragment obtained above was digested with restriction enzymes NheI (Takara Shuzo Co., Ltd.) and Kpn I (Takara Shuzo Co., Ltd.), and applied to agarose gel electrophoresis to recover DNA fragments. The DNA fragments were ligated with animal cell expression plasmid pcDNA3.1/Zeo (Invitrogen) digested with NheI and Kpn I, by DNA Ligation Kit Ver.2 (Takara Shuzo Co., Ltd.), and transformed the competent cells of Escherichia coli JM109 to obtain plasmid, pcDNA3.1/Zeo-Adreα1D.
CHO-K1 cells passage cultured in HamF12 medium (Invitrogen) containing 10% fetal bovine serum (TRACE SCIENCETIFIC) in a 150 cm^2 culture flask (Corning Coaster) were detached with 0.5 g/L trypsin-0.2 g/L EDTA (Invitrogen), and the cells were washed with D-PBS(−) (Invitrogen) and centrifuged (1000 rpm, 5 min). Then, using Gene Pulser II (BioRad), DNA was introduced into the cells under the following conditions. 1×10^7 cells suspended in D-PBS(−) (700 μl) and 10 μg of pcDNA3.1/Zeo-Adreα1D were added in a 0.4 cm gap cuvette (BioRad), and electroporation was performed under voltage 0.25 kV, capacitance 960 μF. The cells were cultured in HamF12 medium containing 10% fetal bovine serum and 250 μg/mL Zeocin (Invitrogen) and the Zeocin resistance clones were selected.
Plurality of Zeocin resistance clones were selected and cultured in a cell culture flask (150 cm^2) until semiconfluent, and the cellular membrane fraction was prepared as follows.
The semiconfluent cells were detached with 0.02% EDTA containing D-PBS(−) and recovered by centrifugation. The cells were suspended in membrane preparation buffer (10 mM NaHCO3 pH 7.4, protease inhibitor cocktail (Roche)) and disrupted by 3 times of treatment in a polytron homogenizer (model PT-3100, KINEMATICA AG) at 20000 rpm for 20 seconds. After disruption, the cells were centrifuged at 2000 rpm for 10 min and the supernatant containing membrane fractions was obtained. The supernatant was centrifuged using an ultracentrifuge (model L8-70M, rotor 70 Ti, Beckman Instruments) at 30000 rpm for 1 hr to obtain a precipitate containing membrane fractions. The obtained membrane fraction of each clone was subjected to the binding experiment shown below.
The membrane fraction (20 μg/well) and [^3H] prazosin (2.5 nM, PerkinElmer Lifescience), as a ligand, were diluted with a binding assay buffer (50 mM Tris-HCl, 10 mM MgCl2, 0.5% BSA, protease inhibitor cocktail pH 7.5), added to a 96 well microplate, and reacted at room temperature for 1 hr. For the measurement of non-specific binding, phentolamine (Sigma) was further added to 10 μM. Then, the reaction mixture was filtered and transferred to unifilter GF/C (PerkinElmer Lifescience) by using a cell harvester (PerkinElmer Lifescience). The filter was washed 3 times with ice-cooled 50 mM Tris buffer (pH 7.5). After drying the filter, MicroScinti 0 (PerkinElmer Lifescience) was added to the filter and the radioactivity was measured by TopCount (PerkinElmer Lifescience). […]
The compound `CCS(=O)(=O)c1ccc(Cl)cc1Cn1cc(Cl)cc(C(N)=O)c1=N` [Example 17, 5-chloro-1-[5-chloro-2-(ethylsulfonyl)benzyl]-2-imino-1,2-dihydropyridine-3-carboxamide hydrochloride] showed an inhibition at 1 µM of 100%.

For the compound `C[S+]([O-])c1ccc(Cl)cc1Cn1cc(Cl)cc(C(N)=O)c1=N` (stereo not shown) [Example 14, 5-chloro-1-[5-chloro-2-(methylsulfinyl)benzyl]-2-imino-1,2-dihydropyridine-3-carboxamide hydrochloride], the inhibition at 1 µM was found to be 92%.

Compound `N=c1c(C(N)=O)cc(Cl)cn1Cc1cc(Cl)ccc1N1CCCC1=O` [Example 35, 5-chloro-1-[5-chloro-2-(2-oxopyrrolidin-1-yl)benzyl]-2-imino-1,2-dihydropyridine-3-carboxamide hydrochloride] registered an inhibition at 1 µM of 89%.

With `CS(=O)(=O)c1cc(Cn2cc(Cl)cc(C(N)=O)c2=N)ccc1Cl` [Example 15, 5-chloro-1-[4-chloro-3-(methylsulfonyl)benzyl]-2-imino-1,2-dihydropyridine-3-carboxamide hydrochloride], testing at 1 µM gave an inhibition of 72.8%.

Consider `CS(=O)(=O)c1cc(Cl)cc(Cn2cc(Cl)cc(C(N)=O)c2=N)c1` [Example 12, 5-chloro-1-[3-chloro-5-(methylsulfonyl)benzyl]-2-imino-1,2-dihydropyridine-3-carboxamide hydrochloride], for which the inhibition at 1 µM is 87.5%.

`CS(=O)(=O)c1ccc(F)cc1Cn1cc(Cl)cc(C(N)=O)c1=N` [Example 18, 5-chloro-1-[5-fluoro-2-(methylsulfonyl)benzyl]-2-imino-1,2-dihydropyridine-3-carboxamide hydrochloride] returned an inhibition at 1 µM of 93.5%.

The compound `CS(=O)(=O)c1ccc(Cl)cc1Cn1cc(Cl)cc(C(N)=O)c1=N` [Example 1, 5-chloro-1-[5-chloro-2-(methylsulfonyl)benzyl]-2-imino-1,2-dihydropyridine-3-carboxamide hydrochloride] registered an inhibition at 1 µM of 100%.

Compound `Cc1ccc(S(C)(=O)=O)c(Cn2cc(Cl)cc(C(N)=O)c2=N)c1` [Example 8, 5-chloro-2-imino-1-[5-methyl-2-(methylsulfonyl)benzyl]-1,2-dihydropyridine-3-carboxamide hydrochloride] came in with an inhibition at 1 µM of 93.5%.

In the case of `N=c1c(C(N)=O)cc(Cl)cn1Cc1cc(Cl)ccc1S(N)(=O)=O` [Example 28, 5-chloro-1-(5-chloro-2-sulfamoylbenzyl)-2-imino-1,2-dihydropyridine-3-carboxamide hydrochloride], the inhibition at 1 µM worked out at 91.2%.

`CCS(=O)(=O)c1ccc(F)cc1Cn1cc(Cl)cc(C(N)=O)c1=N` [Example 24, 5-chloro-1-[2-(ethylsulfonyl)-5-fluorobenzyl]-2-imino-1,2-dihydropyridine-3-carboxamide hydrochloride] displayed an inhibition at 1 µM of 98.4%.
